Where “and” joins values, the source holds several entries; their conditions need not be identical. Equal values may be shown once. Entries after “also recorded” stand apart in the source; their conditions may differ. Read-outs that look alike come from different tables or passages of the source.
Experiments:
mouse ABCG2 [1] = assay type: in vivo, mice; details: FVB, mouse, plasma, oral, 20 mg/kg
mouse ABCG2 [2] = target: T1, mouse ABCG2 (Mus musculus, UniProt Q7TMS5); assay type: in vivo, mice
T1 sequence (Q7TMS5 1-657): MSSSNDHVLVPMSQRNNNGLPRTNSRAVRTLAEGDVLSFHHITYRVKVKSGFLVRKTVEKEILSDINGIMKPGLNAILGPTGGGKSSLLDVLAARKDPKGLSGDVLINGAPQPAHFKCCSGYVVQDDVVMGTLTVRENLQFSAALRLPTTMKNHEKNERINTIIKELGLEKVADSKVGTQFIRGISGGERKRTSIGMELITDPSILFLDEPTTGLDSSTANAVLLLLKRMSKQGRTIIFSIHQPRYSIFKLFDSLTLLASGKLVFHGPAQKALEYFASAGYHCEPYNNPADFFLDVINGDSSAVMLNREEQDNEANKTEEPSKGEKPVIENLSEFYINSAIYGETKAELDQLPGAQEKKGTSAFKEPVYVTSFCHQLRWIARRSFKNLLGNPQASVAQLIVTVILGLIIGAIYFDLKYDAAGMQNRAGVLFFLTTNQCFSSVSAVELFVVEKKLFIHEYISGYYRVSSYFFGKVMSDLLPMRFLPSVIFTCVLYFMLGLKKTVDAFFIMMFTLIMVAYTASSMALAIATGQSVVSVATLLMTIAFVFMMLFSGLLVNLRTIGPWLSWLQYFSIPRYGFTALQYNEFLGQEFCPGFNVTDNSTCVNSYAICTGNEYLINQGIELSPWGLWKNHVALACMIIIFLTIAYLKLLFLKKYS

mouse ABCG2 [3] = assay type: in vivo, mice
human ABCG2 = target: T2, human ABCG2 (Homo sapiens, UniProt Q9UNQ0); assay type: binding
T2 sequence (Q9UNQ0 1-655): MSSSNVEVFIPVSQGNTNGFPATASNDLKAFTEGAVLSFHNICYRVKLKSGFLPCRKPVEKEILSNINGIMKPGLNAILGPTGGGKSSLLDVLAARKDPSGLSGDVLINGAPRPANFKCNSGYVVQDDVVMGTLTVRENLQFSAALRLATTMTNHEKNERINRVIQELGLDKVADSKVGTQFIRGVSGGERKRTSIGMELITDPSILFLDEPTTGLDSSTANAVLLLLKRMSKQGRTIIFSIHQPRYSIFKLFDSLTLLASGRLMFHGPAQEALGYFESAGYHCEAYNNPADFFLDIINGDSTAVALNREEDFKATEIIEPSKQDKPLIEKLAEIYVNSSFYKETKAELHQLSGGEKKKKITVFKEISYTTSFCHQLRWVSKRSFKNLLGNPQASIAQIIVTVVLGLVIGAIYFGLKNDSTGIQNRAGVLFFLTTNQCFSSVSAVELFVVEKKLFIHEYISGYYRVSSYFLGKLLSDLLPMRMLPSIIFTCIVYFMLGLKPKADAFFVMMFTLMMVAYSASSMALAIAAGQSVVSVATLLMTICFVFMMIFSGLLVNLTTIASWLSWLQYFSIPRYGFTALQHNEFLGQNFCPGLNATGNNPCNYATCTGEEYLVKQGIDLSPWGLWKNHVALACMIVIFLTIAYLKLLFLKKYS

MCF-7 cells = details: read-out: IC50 for MCF-7 cells; cited from earlier work
[4] = clinical trials in humans; cited from earlier work
pancreatic cancer = details: oral administration of 8 g curcumin daily up to 18 months; cited from earlier work
ABCG2 = target: T3, ABCG2 (Rattus norvegicus, UniProt Q80W57); test: Bodipy FL prazosin transport assay in isolated rat brain capillaries; assay type: cell-based; details: for IC50: rat brain capillaries
T3 sequence (Q80W57 1-657): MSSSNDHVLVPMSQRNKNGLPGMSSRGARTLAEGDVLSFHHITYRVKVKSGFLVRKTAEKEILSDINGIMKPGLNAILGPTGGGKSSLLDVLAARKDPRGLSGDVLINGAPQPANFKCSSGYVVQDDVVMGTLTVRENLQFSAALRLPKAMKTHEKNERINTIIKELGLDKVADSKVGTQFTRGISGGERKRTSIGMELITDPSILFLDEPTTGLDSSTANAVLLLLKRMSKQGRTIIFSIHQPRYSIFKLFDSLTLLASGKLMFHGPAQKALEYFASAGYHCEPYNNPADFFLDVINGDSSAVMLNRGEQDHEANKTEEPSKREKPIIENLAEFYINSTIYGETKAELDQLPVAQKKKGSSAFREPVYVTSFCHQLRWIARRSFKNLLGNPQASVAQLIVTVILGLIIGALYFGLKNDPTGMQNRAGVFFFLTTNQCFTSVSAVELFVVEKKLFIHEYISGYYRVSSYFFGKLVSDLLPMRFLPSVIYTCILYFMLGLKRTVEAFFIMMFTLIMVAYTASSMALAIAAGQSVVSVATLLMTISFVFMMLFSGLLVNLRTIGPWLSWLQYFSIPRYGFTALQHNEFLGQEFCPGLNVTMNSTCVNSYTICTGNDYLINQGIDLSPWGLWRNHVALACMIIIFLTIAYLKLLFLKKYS

O=C(O)c1cc(/N=N/c2ccc(S(=O)(=O)Nc3ccccn3)cc2)ccc1O [SASP, Sulfasalazine]
concentration at 24 h (mouse ABCG2 [1]): < 1 ng/mL | half-life (mouse ABCG2 [2]; FVB, mouse, plasma, po): 5.02 h | half-life (mouse ABCG2 [2]; FVB, mouse, plasma, po, 20 mg/kg): 1.08 h | Cmax (mouse ABCG2 [2]; FVB, mouse, plasma, po, 20 mg/kg, Cmax of SASP, SASP 20 mg/kg PO, vehicle pretreatment, wild-type mice): 1230 ng/mL | SASP plasma level in abcg2-/- mice relative to abcb1a-/- and wild-type groups (mouse ABCG2 [3]; 90 min after SASP 20 mg/kg PO): 10-20 fold | concentration at 90 min (mouse ABCG2 [3]; FVB, mouse, plasma, oral, 20 mg/kg): ~540 ng/mL and 12400 ng/mL | IC50 (human ABCG2): 1.02 µM

COc1ccc2c3c([nH]c2c1)[C@H](CC(C)C)N1C(=O)[C@H](CCC(=O)OC(C)(C)C)NC(=O)[C@@H]1C3 [Ko143]
IC50 (MCF-7 cells): 19 µM

COc1cc(/C=C/C(=O)CC(=O)/C=C/c2ccc(O)c(OC)c2)ccc1O [curcumin, Diferuoyl methane]
effect of curcumin pretreatment on plasma concentration of SASP (mouse ABCG2 [2]; curcumin 40 mg/kg PO 1 h before SASP 20 mg/kg PO, FVB-WT mice, data not shown): no effect | systemic bioavailability of orally administered curcumin [4]: relatively low | effect of curcumin on the levels of SASP (mouse ABCG2 [3]; abcg2-/- mice, curcumin 400 mg/kg PO, 90 min after SASP 20 mg/kg PO): no significant effect; also recorded: no significant increase | progression of pancreatic cancer (pancreatic cancer): inhibited progression | IC50 (ABCG2; IC50, inhibition of ABCG2-mediated efflux of BODIPY FL prazosin, ex vivo): 0.019 µM | IC50 (ABCG2; IC50, inhibition of ABCG2 activity (luminal BODIPY FL prazosin fluorescence), 2 μM BODIPY FL prazosin, 1 h, room temperature): 0.0194 µM

COc1ccc2c3c([nH]c2c1)[C@H](C=C(C)C)N1C(=O)[C@@H]2CCCN2C(=O)[C@@H]1C3 [FTC, fumitremorgin C]
inhibition of the efflux of Bodipy-prazosin in brain capillaries (ABCG2): 50% | luminal BODIPY FL prazosin fluorescence, % of control capillaries (ABCG2; 5 μM inhibitor, steady state): approximately 50%

COc1cc2c(cc1OC)CN(CCc1ccc(NC(=O)c3cccc4c(=O)c5cccc(OC)c5[nH]c34)cc1)CC2 [GF120918]
IC50 (MCF-7 cells): 18 µM
